Assay: UV absorption spectrum (λmax, ε) of the merocyanine UV filters
Type: physicochemical

| SMILES | UV λmax (in CH3CN/H2O) | UV λmax (in EtOH) | ε (molar extinction at λmax) (in EtOH) |
| --- | --- | --- | --- |
| CC1(C)CC(NCCC[Si](C)(O[Si](C)(C)C)O[Si](C)(C)C)=CC(=C(C#N)C#N)C1 [MC 07] | 382 nm | 381 nm | 52829 |
| CCOC(=O)/C(C#N)=C1\C=C(NCCC[Si](C)(O[Si](C)(C)C)O[Si](C)(C)C)CC(C)(C)C1 [MC 08] |  | 388 nm | 50383 |
| CCOC(=O)/C(C#N)=C1/C=C(NCCC[Si]2(C)O[Si](C)(CCCNC3=C/C(=C(\C#N)C(=O)OCC)CC(C)(C)C3)O[Si](C)(CCCNC3=C/C(=C(\C#N)C(=O)OCC)CC(C)(C)C3)O[Si](C)(CCCNC3=C/C(=C(\C#N)C(=O)OCC)CC(C)(C)C3)O2)CC(C)(C)C1 (stereo not shown) [MC 11] |  | 388 nm | 181817 |
| CCOC(=O)/C(C#N)=C\C=C\N(C)CCC[Si]1(C)O[Si](C)(CCCN(C)/C=C/C=C(/C#N)C(=O)OCC)O[Si](C)(CCCN(C)/C=C/C=C(/C#N)C(=O)OCC)O[Si](C)(CCCN(C)/C=C/C=C(/C#N)C(=O)OCC)O1 (stereo not shown) [MC 12] | 381 nm |  |  |
| CCOC(=O)/C(C#N)=C\C=C\N(C)CCC[Si](C)(O[Si](C)(C)C)O[Si](C)(C)C [MC 13] | 381 nm | 380 nm | 69116 |
| CN(/C=C/C=C(C#N)C#N)CCC[Si](C)(O[Si](C)(C)C)O[Si](C)(C)C [MC 14] | 383 nm |  |  |
| CN(/C=C/C=C(C#N)C#N)CCC[Si]1(C)O[Si](C)(CCCN(C)/C=C/C=C(C#N)C#N)O[Si](C)(CCCN(C)/C=C/C=C(C#N)C#N)O[Si](C)(CCCN(C)/C=C/C=C(C#N)C#N)O1 (stereo not shown) [MC 15] | 378 nm |  |  |

Source: patent US9068080B2, “Merocyanine derivatives” (BASF SE, priority 2006, dated 2015)
